Results as given in US20260042731A1, “(2,4-DICHLOROPHENOXY)ACETIC ACID ANALOGS” (CORTEVA AGRISCIENCE LLC, priority 2022, published 2026).
Like-named read-outs stand apart in the source and are kept apart here.

Experiments:
[1] = Volatility of compounds measured by thermogravimetric analysis (TGA); format: physicochemical
[2] = test system: glyphosate resistant Conyza canadensis (L.) (ERICA), horseweed; experiment: Postemergence herbicide evaluation, growth of Conyza canadensis (ERICA); format: in vivo; conditions: Erigeron canadensis, post-emergence, percent reduction in plant size relative to untreated control, read-out: Ave. ERICA; for pest or weed control at 280 g/ha: 280 g ae/ha; for pest or weed control at 560 g/ha: 560 g ae/ha
[3] = test system: Amaranthus rudis (AMATA), tall water hemp; experiment: Postemergence herbicide evaluation, growth of Amaranthus rudis (AMATA); format: in vivo; conditions: Amaranthus tuberculatus, post-emergence, percent reduction in plant size relative to untreated control, read-out: Ave. AMATA; for pest or weed control at 280 g/ha: 280 g ae/ha; for pest or weed control at 560 g/ha: 560 g ae/ha
[4] = test system: Ambrosia artemisiifolia (AMBEL), common ragweed; experiment: Postemergence herbicide evaluation, growth of Ambrosia artemisiifolia (AMBEL); format: in vivo; conditions: Ambrosia artemisiifolia, post-emergence, percent reduction in plant size relative to untreated control, read-out: AVE. AMBEL; for pest or weed control at 280 g/ha: 280 g ae/ha; for pest or weed control at 560 g/ha: 560 g ae/ha
[5] = test system: Chenopodium album (CHEAL), common lambsquarters; experiment: Postemergence herbicide evaluation, growth of Chenopodium album (CHEAL); format: in vivo; conditions: Chenopodium album, post-emergence, percent reduction in plant size relative to untreated control, read-out: Ave. CHEAL; for pest or weed control at 280 g/ha: 280 g ae/ha; for pest or weed control at 560 g/ha: 560 g ae/ha
[6] = test system: weeds (ABUTH, AMATA, AMBEL, CHEAL, ERICA); experiment: Postemergence herbicide evaluation, overall average % weed control across ABUTH, AMATA, AMBEL, CHEAL, ERICA; format: in vivo; conditions: post-emergence, average over the five weeds, read-out: Overall Ave % Weed Control; for pest or weed control at 280 g/ha: 280 g ae/ha; for pest or weed control at 560 g/ha: 560 g ae/ha
[7] = test system: Abutilon theophrasti (ABUTH), velvetleaf; experiment: Postemergence herbicide evaluation, growth of Abutilon theophrasti (ABUTH); format: in vivo; conditions: Abutilon theophrasti, post-emergence, percent reduction in plant size relative to untreated control, read-out: AVE. ABUTH; for pest or weed control at 280 g/ha: 280 g ae/ha; for pest or weed control at 560 g/ha: 560 g ae/ha

| Structure (SMILES) | TGA Data (rate of weight loss, volatility) [1] | pest or weed control at 280 g/ha ([2]; 168 h, 7 DAA) | pest or weed control at 560 g/ha ([2]; 168 h, 7 DAA) | pest or weed control at 280 g/ha ([2]; 336 h, 14 DAA) | pest or weed control at 560 g/ha ([2]; 336 h, 14 DAA) | pest or weed control at 280 g/ha ([2]; 504 h, 21 DAA) | pest or weed control at 560 g/ha ([2]; 504 h, 21 DAA) | pest or weed control at 280 g/ha ([3]; 168 h, 7 DAA) | pest or weed control at 560 g/ha ([3]; 168 h, 7 DAA) | pest or weed control at 280 g/ha ([3]; 336 h, 14 DAA) | pest or weed control at 560 g/ha ([3]; 336 h, 14 DAA) | pest or weed control at 280 g/ha ([3]; 504 h, 21 DAA) | pest or weed control at 560 g/ha ([3]; 504 h, 21 DAA) | pest or weed control at 280 g/ha ([4]; 168 h, 7 DAA) | pest or weed control at 560 g/ha ([4]; 168 h, 7 DAA) | pest or weed control at 280 g/ha ([4]; 336 h, 14 DAA) | pest or weed control at 560 g/ha ([4]; 336 h, 14 DAA) | pest or weed control at 280 g/ha ([4]; 504 h, 21 DAA) | pest or weed control at 560 g/ha ([4]; 504 h, 21 DAA) | pest or weed control at 280 g/ha ([5]; 168 h, 7 DAA) | other results |
| --- | --- | --- | --- | --- | --- | --- | --- | --- | --- | --- | --- | --- | --- | --- | --- | --- | --- | --- | --- | --- | --- |
| CN(OC(=O)COc1ccc(Cl)cc1Cl)C(=O)c1ccccc1 [Compound A16, N-(2-(2,4-Dichlorophenoxy)acetoxy)-N-methylbenzamide] | 4.3 µg/min | 68% | 75% | 85% | 92% | 93% | 100% | 65% | 83% | 73% | 83% | 65% | 87% | 70% | 78% | 83% | 97% | 88% | 100% | 63% | pest or weed control at 560 g/ha ([5]; 168 h, 7 DAA): 68%; pest or weed control at 280 g/ha ([5]; 336 h, 14 DAA): 70%; pest or weed control at 560 g/ha ([5]; 336 h, 14 DAA): 80%; pest or weed control at 280 g/ha ([5]; 504 h, 21 DAA): 68%; pest or weed control at 560 g/ha ([5]; 504 h, 21 DAA): 95%; pest or weed control at 280 g/ha ([6]; 168 h, 7 DAA): 70%; pest or weed control at 560 g/ha ([6]; 168 h, 7 DAA): 78%; pest or weed control at 280 g/ha ([6]; 336 h, 14 DAA): 81%; pest or weed control at 560 g/ha ([6]; 336 h, 14 DAA): 89%; pest or weed control at 280 g/ha ([6]; 504 h, 21 DAA): 81%; pest or weed control at 560 g/ha ([6]; 504 h, 21 DAA): 96%; pest or weed control at 280 g/ha ([7]; 168 h, 7 DAA): 85%; pest or weed control at 560 g/ha ([7]; 168 h, 7 DAA): 88%; pest or weed control at 280 g/ha ([7]; 336 h, 14 DAA): 93%; pest or weed control at 560 g/ha ([7]; 336 h, 14 DAA): 96%; pest or weed control at 280 g/ha ([7]; 504 h, 21 DAA): 94%; pest or weed control at 560 g/ha ([7]; 504 h, 21 DAA): 99% |
| O=C(COc1ccc(Cl)cc1Cl)O/N=C/c1ccc(/C=N/OC(=O)COc2ccc(Cl)cc2Cl)cc1 [Compound B3, (1,1′)-4-(-((2-(2,4-Dichlorophenoxy)acetoxy)imino)methyl)benzaldehyde-O-(2-(2,4-dichlorophenoxy)acetyl) oxime] | 0.8 µg/min | 55% | 65% | 78% | 80% | 85% | 80% | 60% | 70% | 58% | 68% | 58% | 68% | 23% | 48% | 45% | 50% | 45% | 53% | 65% | pest or weed control at 560 g/ha ([5]; 168 h, 7 DAA): 68%; pest or weed control at 280 g/ha ([5]; 336 h, 14 DAA): 68%; pest or weed control at 560 g/ha ([5]; 336 h, 14 DAA): 70%; pest or weed control at 280 g/ha ([5]; 504 h, 21 DAA): 68%; pest or weed control at 560 g/ha ([5]; 504 h, 21 DAA): 70%; pest or weed control at 280 g/ha ([6]; 168 h, 7 DAA): 47%; pest or weed control at 560 g/ha ([6]; 168 h, 7 DAA): 62%; pest or weed control at 280 g/ha ([6]; 336 h, 14 DAA): 52%; pest or weed control at 560 g/ha ([6]; 336 h, 14 DAA): 65%; pest or weed control at 280 g/ha ([6]; 504 h, 21 DAA): 53%; pest or weed control at 560 g/ha ([6]; 504 h, 21 DAA): 66%; pest or weed control at 280 g/ha ([7]; 168 h, 7 DAA): 33%; pest or weed control at 560 g/ha ([7]; 168 h, 7 DAA): 60%; pest or weed control at 280 g/ha ([7]; 336 h, 14 DAA): 13%; pest or weed control at 560 g/ha ([7]; 336 h, 14 DAA): 58%; pest or weed control at 280 g/ha ([7]; 504 h, 21 DAA): 12%; pest or weed control at 560 g/ha ([7]; 504 h, 21 DAA): 58% |
